{
  "source": "patent US4713200A",
  "about": "“Pesticidal compounds” (Burroughs Wellcome Co., priority 1984, dated 1987)",
  "assay_type_in_all_cases": "in vivo",
  "key": {"male Blattella germanica": {"system": "male Blattella germanica", "assay": "Activity against cockroaches (deposit on glass)", "experimental": "Knockdown was assessed after 10 and 60 minutes and mortality after 1 day and 6 days."}, "[1]": {"system": "Mustard Beetle (Phaedon cochleariae) second-instar larvae", "assay": "Activity against mustard beetle larvae (topical application)", "experimental": "Second-instar larvae were used in all the tests and compounds were applied topically to the dorsal surface of the abdomen, using a microapplicator. Between 10 and 33 larvae were used at each concentration of the chemicals. Analar acetone and Analar butanone were used as solvents. In the first tests a 0.5 μl droplet was applied to each larva but after this the droplet size was increased to 1 μl as the larvae were unaffected by the solvents.\nAfter treatment, all the larvae (usually 20) tested at a particular concentration were confined together on turnip leaves. The leaves were placed on damp filter paper in a petri dish and covered with a second layer of filter paper in the lid of the dish.\nThe petri dishes were maintained in an incubator at 20° C. and 16 h light. The turnip leaves were replaced as they were eaten by the larvae.\nThe larvae were assessed at intervals, from 1 h to 216 h after treatment. The following categories were used to classify the larvae:\ni. Healthy larvae which were feeding and moved around the dish"}, "[2]": {"system": "Mixed sex Musca domestica", "assay": "Knockdown activity against houseflies (Kearns and March chamber spray)", "settings": "for KD10 min % effect: 10 min", "experimental": "Mixed sex Musca domestica were held in a Kearns and March chamber and sprayed with 0.2 ml of a solution of the compound in OPD/dichloromethane. Knockdown was assessed at 1 min. intervals for 10 mins."}, "Sitophilus granarius": {"system": "Sitophilus granarius", "assay": "Activity against grain beetles (deposits on grain)", "settings": "6 days", "experimental": "Mortality was assessed after 6 days."}, "[3]": {"system": "female Musca domestica (WRL strain)", "assay": "Lethal activity against house flies (topical application, with and without piperonyl butoxide)", "settings": "mortality after 48 hrs; for LD50 (synergised): with synergist 6 μg piperonyl butoxide per insect", "experimental": "The test compound was applied with the application of the synergist (6 μg piperonyl butoxide (PB) per insect). Mortality was assessed after 48 hrs."}, "[4]": {"system": "female Culex quinquefasciatus", "assay": "Knockdown activity against mosquitoes (wind tunnel spray)", "settings": "for KD10 min % effect: 10 min; for Kill: 24 hrs", "experimental": "The knockdown activity of compounds was assessed as follows: Caged female Culex quinquefasciatus were sprayed in a wind tunnedl with 0.2 ml of a solution of the compound in odourless petroleum distillate (OPD)/dichloromethane (80/20) and knockdown was assessed at minute intervals for 10 mins. The insects were transferred to a holding cup and kept for 24 hrs with sugar/water. Mortalities were assessed at 24 hrs."}, "[5]": {"system": "third instar larvae of Aedes aegypti", "assay": "Activity against mosquito larvae (aqueous suspension)", "settings": "2.5 ppm cpd (+ 12.5 pb)"}, "[6]": {"system": "fully engorged female Boophilus microplus, susceptible strain", "assay": "Activity against the cattle tick, injection", "settings": "10 μg/tick, 14 days", "experimental": "The compound was supplied as a […] solution in DMSO:Acetone (1:1). Administration of the compound was by means of a microapplicator which was preset to deliver 0.2 μl of solution. The compound in solution was injected into fully engorged female Boophilus microplus, susceptible strain, at a site just lateral to the mouthparts at the rate of 10 μg/tick. Reducing the concentration reduced the dose delivered.\nAfter injection the ticks were maintained at 24° C. and 85% RH for 14 days. At this time the ticks were examined for the presence of viable eggs which gave the percent inhibition of reproduction (% IR)."}, "[7]": {"settings": "500 μg/ml, 1 hour after treatment"}, "[8]": {"settings": "500 μg/ml, 20 hours after treatment"}, "[9]": {"settings": "1000 μg/ml, 1 hour after treatment"}, "[10]": {"settings": "1000 μg/ml, 20 hours after treatment"}, "[11]": {"settings": "0.1 % cpd (piperonyl butoxide entry printed \"^\")"}, "[12]": {"settings": "0.03 % cpd (0.15 piperonyl butoxide)"}, "[13]": {"settings": "0.3 % cpd (1.5 piperonyl butoxide)"}, "[14]": {"settings": "0.1 % cpd (0.5 piperonyl butoxide)"}},
  "data": [
    {"smiles": "CC(C)CNC(=O)/C=C/C=C/CCCCOCc1cccc(C(F)(F)F)c1", "note": "[Example 2, N-isobutyl 9-(3'trifluoromethylbenzyloxy)-(2E,4E)-nonadienamide]", "values": [
      {"measurement": "% mortality 1 day", "setting": "male Blattella germanica; 1400 mg/m^2 (+ 1400 pb)", "value": 50, "unit": "%"},
      {"measurement": "% mortality 6 day", "setting": "male Blattella germanica; 1400 mg/m^2 (+ 1400 pb)", "value": 50, "unit": "%"},
      {"measurement": "Dead (number of larvae)", "setting": "[1]; [7]", "value": 0},
      {"measurement": "Healthy (number of larvae)", "setting": "[1]; [7]", "value": 0},
      {"measurement": "Paralysed (number of larvae)", "setting": "[1]; [7]", "value": 33},
      {"measurement": "Dead (number of larvae)", "setting": "[1]; [8]", "value": 24},
      {"measurement": "Healthy (number of larvae)", "setting": "[1]; [8]", "value": 9},
      {"measurement": "Paralysed (number of larvae)", "setting": "[1]; [8]", "value": 0},
      {"measurement": "Dead (number of larvae)", "setting": "[1]; [9]", "value": 0},
      {"measurement": "Healthy (number of larvae)", "setting": "[1]; [9]", "value": 0},
      {"measurement": "Paralysed (number of larvae)", "setting": "[1]; [9]", "value": 33},
      {"measurement": "Dead (number of larvae)", "setting": "[1]; [10]", "value": 29},
      {"measurement": "Healthy (number of larvae)", "setting": "[1]; [10]", "value": 4},
      {"measurement": "Paralysed (number of larvae)", "setting": "[1]; [10]", "value": 0},
      {"measurement": "kT50", "setting": "[2]; [11]", "value": 6.1, "unit": "min"},
      {"measurement": "KD10 min % effect", "setting": "[2]; [11]", "value": 86, "unit": "%"},
      {"measurement": "% mortality", "setting": "Sitophilus granarius; 20 ppm cpd (+ 100 pb)", "value": 84, "unit": "%"},
      {"measurement": "LD50 (synergised)", "setting": "[3]", "value": 0.2, "unit": "μg/fly"},
      {"measurement": "kT50", "setting": "[4]; [12]", "value": 8.6, "unit": "min"},
      {"measurement": "KD10 min % effect", "setting": "[4]; [12]", "value": 56, "unit": "%"},
      {"measurement": "Kill", "setting": "[4]; [12]", "value": 4, "unit": "%"},
      {"measurement": "kT50", "setting": "[4]; [13]", "value": 1.2, "unit": "min"},
      {"measurement": "KD10 min % effect", "setting": "[4]; [13]", "value": 100, "unit": "%"},
      {"measurement": "Kill", "setting": "[4]; [13]", "value": 71, "unit": "%"},
      {"measurement": "% mortality", "setting": "[5]", "value": 100, "unit": "%"}
    ]},
    {"smiles": "CC(C)CNC(=O)/C=C/C=C/CCCCCCOCc1cc(C(F)(F)F)cc(C(F)(F)F)c1", "note": "[Example 4, N-isobutyl 11-(3',5'-bis-trifluoromethylbenzyloxy)-(2E,4E)-undecadienamide]", "values": [
      {"measurement": "% mortality 1 day", "setting": "male Blattella germanica; 700 mg/m^2 (+ 700 pb)", "value": 32, "unit": "%"},
      {"measurement": "% mortality 6 day", "setting": "male Blattella germanica; 700 mg/m^2 (+ 700 pb)", "value": 32, "unit": "%"},
      {"measurement": "% mortality", "setting": "Sitophilus granarius; 50 ppm cpd (+ 500 pb)", "value": 100, "unit": "%"},
      {"measurement": "LD50 (synergised)", "setting": "[3]", "value": 0.025, "unit": "μg/fly"},
      {"measurement": "LD50 (unsynergised)", "setting": "[3]; without synergist", "value": 0.12, "unit": "μg/fly"}
    ]},
    {"smiles": "CC(C)CNC(=O)/C=C/C=C/CCCCCOCc1ccccc1", "note": "[Example 8, N-iso-butyl 10-(benzyloxy)-(2E,4E)-decadienamide]", "values": [
      {"measurement": "LD50 (synergised)", "setting": "[3]", "value": "> 5", "unit": "μg/fly"}
    ]},
    {"smiles": "CC(C)CNC(=O)/C=C/C=C/CCCCOCCOc1cc(Cl)cc(Cl)c1", "note": "[Example 66, N--isobutyl 9-(2-(3',5'-dichlorophenoxy)-ethoxy)-nona-2E, 4E-dienamide]", "values": [
      {"measurement": "kT50", "setting": "[2]; [14]", "value": 5.1, "unit": "min"},
      {"measurement": "KD10 min % effect", "setting": "[2]; [14]", "value": 96, "unit": "%"},
      {"measurement": "kT50", "setting": "[4]; [14]", "value": 1.2, "unit": "min"},
      {"measurement": "KD10 min % effect", "setting": "[4]; [14]", "value": 96, "unit": "%"},
      {"measurement": "Kill", "setting": "[4]; [14]", "value": 40, "unit": "%"}
    ]},
    {"smiles": "CC(C)C(C)NC(=O)/C=C/C=C/CCCCOCc1ccc(OC(F)(F)F)cc1", "note": "(stereo not shown) [Example 85]", "values": [
      {"measurement": "% IR (percent inhibition of reproduction)", "setting": "[6]", "value": 100, "unit": "%"},
      {"measurement": "mortality at 10 µg/tick", "setting": "[6]; Rhipicephalus microplus, 336 h, read-out: % kill", "value": 50, "unit": "%"}
    ]},
    {"smiles": "CC(C)ONC(=O)/C=C/C=C/CCCCOCc1cccc(C(F)(F)F)c1", "note": "[Example 89]", "values": [
      {"measurement": "LD50 (synergised)", "setting": "[3]", "value": "> 5", "unit": "μg/fly"}
    ]},
    {"smiles": "CC(NC(=O)/C=C/C=C/CCCCCCOCc1cc(C(F)(F)F)cc(C(F)(F)F)c1)C(C)(C)C", "note": "(stereo not shown) [Example 108]", "values": [
      {"measurement": "LD50 (synergised)", "setting": "[3]", "value": 0.09, "unit": "μg/fly"}
    ]},
    {"smiles": "CC1(C)CC1NC(=O)/C=C/C=C/CCCCCCOCc1cc(C(F)(F)F)cc(C(F)(F)F)c1", "note": "(stereo not shown) [Example 109]", "values": [
      {"measurement": "LD50 (synergised)", "setting": "[3]", "value": 0.09, "unit": "μg/fly"}
    ]},
    {"smiles": "CC(C)CNC(=O)/C=C/C=C/CCCCC(=O)Cc1cccc(C(F)(F)F)c1", "note": "[Example 122, N--Isobutyl 11-(3-trifluoromethylphenyl)-10-oxo-undeca-2E,-dienamide]", "values": [
      {"measurement": "LD50 (synergised)", "setting": "[3]", "value": "> 1.5", "unit": "μg/fly"}
    ]},
    {"smiles": "CCC(CCC/C=C/C=C/C(=O)NCC(C)C)N(C)Cc1ccccc1", "note": "(stereo not shown) [Example 126, N--Isobutyl N'--methyl-N'--benzyl-9-aminoundeca-2E, 4E-dienamide]", "values": [
      {"measurement": "LD50 (synergised)", "setting": "[3]", "value": "> 20", "unit": "μg/fly"}
    ]}
  ]
}
